The source of these data is ChEMBL document CHEMBL1159070, “Synthesis and disulfide bond connectivity-activity studies of a kalata B1-inspired cyclopeptide against dengue NS2B-NS3 protease” (Bioorg Med Chem, 2010).

Assay [1] relates to dengue virus type 2. Briefly: (§1) Inhibition of Dengue virus 2 recombinant NS2B/3 protease expressed in Escherichia coli BL21(DE3) assessed as Dabcyl-KGRRSSKL-Edans substrate cleavage by fluorimetry.
Assay [2] is described as follows: as §1. More on the design: species or system dengue virus type 2.

Activity calls are given as the source filed them. The rule behind the calls is not given here.

As for `CC(C)C[C@@H]1NC(=O)CNC(=O)[C@H](CC(N)=O)NC(=O)[C@H](CCCNC(=N)N)NC(=O)[C@H]([C@@H](C)O)NC(=O)[C@H](CS)NC(=O)[C@H](C(C)C)NC(=O)[C@@H]2CCCN2C(=O)[C@H](CCC(=O)O)NC(=O)[C@H](CO)NC(=O)[C@H](CS)NC(=O)[C@H]([C@@H](C)O)NC(=O)[C@H](CS)NC(=O)CNC(=O)[C@@H]2CCCN2C(=O)[C@H]([C@@H](C)O)NC(=O)[C@H](CC(N)=O)NC(=O)[C@H](CS)NC(=O)[C@H]([C@@H](C)O)NC(=O)CNC(=O)CNC(=O)[C@H](C(C)C)NC(=O)[C@H](CS)NC(=O)[C@H]([C@@H](C)O)NC(=O)[C@H](CCC(=O)O)NC(=O)CNC(=O)[C@H](CS)NC(=O)[C@H](C(C)C)NC(=O)[C@@H]2CCCN2C1=O`, the outcome in assay [1] was inactive.
With `CC(C)C[C@@H]1NC(=O)CNC(=O)[C@H](CCCNC(=N)N)NC(=O)[C@H](CCCNC(=N)N)NC(=O)[C@H]([C@@H](C)O)NC(=O)[C@@H]2CSSC[C@H](NC(=O)CNC(=O)[C@@H]3CCCN3C(=O)[C@H]([C@@H](C)O)NC(=O)[C@@H](N)CC(=O)NC(=O)[C@@H]3CSSC[C@H](NC(=O)[C@H](C(C)C)NC(=O)[C@@H]4CCCN4C1=O)C(=O)NCC(=O)N[C@@H](CO)C(=O)N[C@@H](CCC(=O)O)C(=O)N[C@@H](CCC(=O)O)C(=O)N[C@@H](CO)C(=O)N[C@@H](CCCNC(=N)N)C(=O)N[C@@H](CCCNC(=N)N)C(=O)NCC(=O)N3)C(=O)N[C@@H](CCCNC(=N)N)C(=O)N[C@@H](CCCNC(=N)N)C(=O)N[C@@H](CO)C(=O)N[C@@H](Cc1c[nH]c3ccccc13)C(=O)N1CCC[C@H]1C(=O)N[C@@H](C(C)C)C(=O)N2`, in assay [2], the IC50 turned out to be 4.3 µM and the Ki was determined as 1.39 µM.
In the case of `CC(C)C[C@H](NC(=O)CN)C(=O)N1CCC[C@H]1C(=O)N[C@H](C(=O)N[C@@H](CS)C(=O)NCC(=O)N[C@@H](CCC(=O)O)C(=O)N[C@H](C(=O)N[C@@H](CS)C(=O)N[C@H](C(=O)NCC(=O)NCC(=O)N[C@H](C(=O)N[C@@H](CS)C(=O)N[C@@H](CC(N)=O)C(=O)N[C@H](C(=O)N1CCC[C@H]1C(=O)NCC(=O)N[C@@H](CS)C(=O)N[C@H](C(=O)N[C@@H](CS)C(=O)N[C@@H](CO)C(=O)N[C@@H](CCC(=O)O)C(=O)N1CCC[C@H]1C(=O)N[C@H](C(=O)N[C@@H](CS)C(=O)N[C@H](C(=O)N[C@@H](CCCNC(=N)N)C(=O)N[C@@H](CC(N)=O)C(=O)O)[C@@H](C)O)C(C)C)[C@@H](C)O)[C@@H](C)O)[C@@H](C)O)C(C)C)[C@@H](C)O)C(C)C`, the outcome in assay [1] was inactive.
With `CC(C)C[C@@H]1NC(=O)CNC(=O)[C@H](CCCNC(=N)N)NC(=O)[C@H](CCCNC(=N)N)NC(=O)[C@H]([C@@H](C)O)NC(=O)[C@@H]2CSSC[C@H](NC(=O)[C@H](C(C)C)NC(=O)[C@@H]3CCCN3C1=O)C(=O)NCC(=O)N[C@@H](CO)C(=O)N[C@@H](CCC(=O)O)C(=O)N[C@@H](CCC(=O)O)C(=O)N[C@@H](CO)C(=O)N[C@@H](CCCNC(=N)N)C(=O)N[C@@H](CCCNC(=N)N)C(=O)NCC(=O)N[C@H]1CSSC[C@H](NC(=O)CNC(=O)[C@@H]3CCCN3C(=O)[C@H]([C@@H](C)O)NC(=O)[C@@H](N)CC(=O)NC1=O)C(=O)N[C@@H](CCCNC(=N)N)C(=O)N[C@@H](CCCNC(=N)N)C(=O)N[C@@H](CO)C(=O)N[C@@H](Cc1c[nH]c3ccccc13)C(=O)N1CCC[C@H]1C(=O)N[C@@H](C(C)C)C(=O)N2`, in assay [2], the IC50 is 9.3 µM and the inhibitory constant (Ki) came to 3.03 µM.
As for `CC(C)C[C@@H]1NC(=O)CNC(=O)[C@H](CCCNC(=N)N)NC(=O)[C@H](CCCNC(=N)N)NC(=O)[C@H]([C@@H](C)O)NC(=O)[C@H](CS)NC(=O)[C@H](C(C)C)NC(=O)[C@@H]2CCCN2C(=O)[C@H](Cc2c[nH]c3ccccc23)NC(=O)[C@H](CO)NC(=O)[C@H](CCCNC(=N)N)NC(=O)[C@H](CCCNC(=N)N)NC(=O)[C@H](CS)NC(=O)CNC(=O)[C@H]2CCCN2C(=O)[C@H]([C@@H](C)O)NC(=O)[C@@H](N)CC(=O)NC(=O)[C@H](CS)NC(=O)CNC(=O)[C@H](CCCNC(=N)N)NC(=O)[C@H](CCCNC(=N)N)NC(=O)[C@H](CO)NC(=O)[C@H](CCC(=O)O)NC(=O)[C@H](CCC(=O)O)NC(=O)[C@H](CO)NC(=O)CNC(=O)[C@H](CS)NC(=O)[C@H](C(C)C)NC(=O)[C@@H]2CCCN2C1=O`, the outcome in assay [1] was Active.

For orientation: IC50 means the concentration that gives 50% inhibition. One may read the Ki as a measure of affinity in units of concentration, obtained from inhibition or displacement.
